Results: US10976319B2, “Cell response assay for cancer and methods of producing and using same” (Siemens Healthcare Diagnostics Inc., priority 2011, dated 2021)
Where “and” joins values, the source holds several entries; their conditions need not be identical. Equal entries are not always repeated.

Key:
[1] = cited from earlier work; for log Ka: Eu2+ complexed by amine poly carboxylate ions
prostate cancer cells = assay: Cell response assay for prostate cancer, cells before and after camptothecin treatment; type: cell-based
Method: (§1) The procedure to test the method was to collect 4 mL normal whole blood fresh into a VACUTAINER® tube (BD 6 mL VACUTAINER® K2EDTA tube, 10.8 mg, ref 367863, Becton Dickinson, Oakville, ON) and transfer the blood into a round centrifuge tube sealed with top. Cancer cells were added by 40 μL of prostate cell cancer suspension to obtain a range of 3000 to 8000 cells/mL (8 cells/μL or 1-2 per high powered filed HRP (HRP=0.2 μL)). The blood was lysed by adding 3 mL of lysis buffer (155 mM NH4Cl, 20 mM KHCO3, 0.1 mM Na2EDTA, pH 7.4). The tubes were rolled tubes to assure that the cells were evenly distributed and that lysis was complete, and then the sample was spun down for 15 minutes at 12,000 rpm. Next, the plasma was decanted as waste supernatant, and 4.0 mL of TES buffer (50 mM N-Tris [Hydroxymethyl]-2-aminoethane-sulfonic acid: TES, pH 7.4, 2150 mM NaCl, 2 mM MgSO4 and 1 mM KCO3) and 1% albumin was added, and the tube was rocked to mix the cells. The tube was spun down again for 15 minutes at 12,000 rpm, and the supernatant was decanted as waste. A final 2.0 mL of TES wash buffer was added with rocking to mix cells.
(§2) The cells were then reacted with the reagents by taking 0.5 mL of washed blood to the centrifuge tube, and 40 μL of antibodies for PSA labeled with Cy5 and 40 μL of antibodies for urokinase like plasminogen activator (uPA) or plasminogen activator inhibitor (PAI-1) labeled with Texas Red (at working stock of 0.001 to 0.1 mg/mL) and PL2L piwi like labeled with FITC (at working stock of 0.001 to 0.1 mg/mL) were added. Next, 10 μl of a 100 μg/ml 4,6 Diamidino-2-phenylindole dihydrochloride (DAPI; a nucleic acid binding probe) was added from a solution in TES buffer. This was followed by incubation for 15 minutes at 37° C.
(§3) The sample was centrifuged down for 5 minutes @ 7500 rpm, and the supernatant was decanted off as waste (^˜450 μL). 500 μL of TES buffer was then added, and the sample was vortexed and centrifuged down at 5 minutes @ 7500 rpm. Again, the supernatant was decanted off by tapping as waste (^˜450 μL). A final 500 μL of TES wash buffer was added for final imaging, and 5 μL of the solution was placed on a slide with a long cover slip of glass. Phase contrast and fluorescence microscopy was conducted with the Leica DM5000 (Leica Microsystems, Buffalo Grove, Ill.).
(§4) The Texas Red label (ex 592, em 614 nm) was measured with a excitation band pass filter at 540-580 nm and emission band pass filter at 610-680 nm. The FITC label (ex 488, em 525 nm) was measured with an excitation band pass filter at 460-500 nm and an emission band pass filter at 512-543 nm. The DAPI probe (ex 355, em 460 nm) was measured with an excitation band pass filter at 340-380 nm and an emission band pass filter at 450-490 nm. The Cy5 label (ex 646, em 676 nm) was measured with an excitation band pass filter at 590-650 nm and an emission band pass filter at 665-735 nm.
A novel cell response assay for prostate cancer was developed by using PSA as a tissue type marker for prostate carcinoma (Biomarker A) that is always present in the disease state. […] Chemo resistance nature (Biomarker C) was determined using PL2L piwi like antigen to determine the inhibitory response to tissue invasiveness. […]

breast cancer cells = assay: Cell response assay for breast cancer, cells before and after camptothecin treatment; type: cell-based
Method: as §1, with “breast” for “prostate”, “cells/4” for “cells/μL”
as §2, with “HER2/neu” for “PSA”
as §3, with “Ill.). A sample of cells was stained with the PSS-550 probe (ex 553, em 615 nm) and measured with an excitation band pass filter at 540-580 nm and an emission band pass filter at 610-680 nm to determine cell membrane flopping as a measure of cell death in addition to cell counts.” for “Ill.).”
as §4, with “measured with an excitation band” for “measured with a excitation band”, “nm and an emission band” for “nm and emission band”
A novel cell response assay for breast cancer was developed by using HER2/neu as a tissue type marker for carcinoma breast cancer (Biomarker A) that is always present in the disease state. […]

[2] = camptothecin concentration adjusted
[3] = when the cell death % was highest

O=C(O)CN(CC(=O)O)C1CCCCC1N(CC(=O)O)CC(=O)O (centres unmarked) [DCTA]
log Ka [1]: 19

O=C(O)CN(CCN(CC(=O)O)CC(=O)O)CCN(CC(=O)O)CC(=O)O [DTPA]
log Ka [1]: 23

O=C(O)CN(CCN(CC(=O)O)CC(=O)O)CC(=O)O [EDTA]
log Ka [1]: 17

CC(=O)CC(=O)c1ccccc1 [HBA, benzoylacetone]
log K ([1]; europium chelate): 18.9

O=C(O)CN(CCO)CCN(CC(=O)O)CC(=O)O [HEDTA]
log Ka [1]: 15

O=C(O)CNCC(=O)O [IMDA]
log Ka [1]: 6

O=C(CC(=O)C(F)(F)F)c1cccs1 [TTA, thenoyltriflouracetone]
association constant (log Ka) ([1]; europium chelate, when converted to enolate): 8.0

CC[C@@]1(O)C(=O)OCc2c1cc1n(c2=O)Cc2cc3ccccc3nc2-1 [camptothecin]
cancer cell count (prostate cancer cells; as the cell death % increased): decrease
phosphatidylserine flopping (prostate cancer cells; as the cell death % increased): increased
% of the cancer cells in cultures killed (prostate cancer cells; [2]): > 80% and 60% and 40%
biomarker B, namely uPA and PA1 (metastatic potential) (prostate cancer cells; [3]): increase
biomarker C, namely PL2L piwi like (chemo resistance) (prostate cancer cells; [3]): decrease
cancer cell count (breast cancer cells; as the cell death % increased): decrease
phosphatidylserine flopping (breast cancer cells; as the cell death % increased): increased
% of the cancer cells in cultures killed (breast cancer cells; [2]): > 80% and 60% and 40%
biomarker B, namely uPA and PA1 (metastatic potential) (breast cancer cells; [3]): increase
biomarker C, namely PL2L piwi like (chemo resistance) (breast cancer cells; [3]): decrease
